Reference: US9828385B2, “Spiro-oxazolones” (Hoffmann-La Roche Inc., priority 2014, dated 2017)

What follows are compounds tested against T1, human V1a receptor (Homo sapiens, UniProt P37288) (assay: human V1a receptor binding studies (3H-Vasopressin, SPA beads)). Details: membranes of HEK293 cells transiently transfected with human V1a receptor, Ki by Cheng-Prussoff from IC50, read-out: pKi hV1a (converted).
T1 construct: expressed in transfected cells; host or cells: HEK293 cells, transiently transfected; cell membranes
T1 sequence (P37288 whole entry): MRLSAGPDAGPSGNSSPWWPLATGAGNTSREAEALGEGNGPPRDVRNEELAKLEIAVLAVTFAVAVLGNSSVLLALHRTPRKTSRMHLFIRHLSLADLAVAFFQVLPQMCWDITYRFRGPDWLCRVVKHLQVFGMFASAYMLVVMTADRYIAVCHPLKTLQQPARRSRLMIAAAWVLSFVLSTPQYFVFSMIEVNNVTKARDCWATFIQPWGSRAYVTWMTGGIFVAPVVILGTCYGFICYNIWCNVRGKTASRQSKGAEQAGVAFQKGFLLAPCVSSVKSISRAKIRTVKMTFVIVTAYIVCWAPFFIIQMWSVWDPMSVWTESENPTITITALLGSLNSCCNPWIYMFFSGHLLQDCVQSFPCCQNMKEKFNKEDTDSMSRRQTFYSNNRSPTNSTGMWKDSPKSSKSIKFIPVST
In short: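 Membranes from transiently transfected HEK293 cells expressing cloned human V1a receptor, on yttrium silicate SPA beads, competed against 4 nM 3H-vasopressin (added stock concentration) in Tris buffer with NaCl, KCl, CaCl2, MgCl2 for 1 h at room temperature. Nonspecific binding with cold vasopressin; IC50 by nonlinear fit, Ki via Cheng-Prusoff.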
With `CC(=O)OC(c1ccc(Cl)cc1)C1OC(N2CCC3(CC2)OCc2ccccc23)=NC1=O` (centres unmarked) [Example 41, (4-Chlorophenyl)[4-oxo-2-(1′H,3H-spiro[2-benzofuran-1,4′-piperidin]-1′-yl)-4,5-dihydro-1,3-oxazol-5-yl]methyl acetate] the Ki was 31.6 nM.
In the case of `O=C1N=C(N2CCC3(CC2)OCc2ccccc23)OC1C(F)c1ccc(Cl)cc1` (single isomer, unassigned) [Example 48, 5-((4-Chlorophenyl)fluoromethyl)-2-(1′H,3H-spiro[2-benzofuran-1,4′-piperidin]-1′-yl)-1,3-oxazol-4(5H)-one diastereomer b, enantiomer A], the Ki is reported as 39.8 nM.
With `O=C1N=C(N2CCC3(CC2)OCc2ccccc23)OC1C(O)c1ccccc1` (single isomer, unassigned) [Example 36, 5-(Hydroxy(phenyl)methyl)-2-(1′H,3H-spiro[2-benzofuran-1,4′-piperidin]-1′-yl)-1,3-oxazol-4(5H)-one diastereomer a, enantiomer A] the Ki was 31.6 nM.
For `C=CCC1(CC(=C)C(=O)OCC)OC(N2CCC3(CC2)OCc2ccccc23)=NC1=O` (centres unmarked) [Example 61, Ethyl 2-{[4-oxo-5-(prop-2-en-1-yl)-2-(1′H,3H-spiro[2-benzofuran-1,4′-piperidin]-1′-yl)-4,5-dihydro-1,3-oxazol-5-yl]methyl}prop-2-enoate], the Ki was 794 nM.
Work on `O=C1N=C(N2CCC3(CC2)OCc2ccccc23)OC1C(O)c1ccc(Cl)cc1` (single isomer, unassigned; diastereomer b) [Example 44, (−)-5-[(4-Chlorophenyl)(hydroxy)methyl]-2-(1′H,3H-spiro[2-benzofuran-1,4′-piperidin]-1′-yl)-1,3-oxazol-4(5H)-one diastereomer b] yielded a Ki of 126 nM.
`C=C(CC1(CC(=C)C(F)(F)F)OC(N2CCC3(CC2)OCc2ccccc23)=NC1=O)C(F)(F)F` [Example 64, 2-(3H-Spiro[isobenzofuran-1,4′-piperidine]-1′-yl)-5,5-bis(2-(trifluoromethyl)allyl)oxazol-4(5H)-one] showed a Ki of 12.6 nM.
`O=C1N=C(N2CCC3(CC2)SCc2ccccc23)OC1Cc1ccccc1` (centres unmarked) [Example 33, 5-Benzyl-2-(1′H,3H-spiro[2-benzothiophene-1,4′-piperidin]-1′-yl)-1,3-oxazol-4(5H)-one] gave a Ki of 12.6 nM.
`C=C(CC1OC(N2CCC3(CC2)OCc2ccccc23)=NC1=O)C(F)(F)F` (centres unmarked) [Example 10, 2-(1′H,3H-Spiro[2-benzofuran-1,4′-piperidin]-1′-yl)-5-[2-(trifluoromethyl)prop-2-en-1-yl]-1,3-oxazol-4(5H)-one] showed a Ki of 3.98 nM.
Compound `CCCCCC1CCC2(CC1)OC(N1CCC3(CC1)OCc1ccccc13)=NC2=O` (single isomer, unassigned; diastereomer b) [Example 129, 8-Pentyl-2-(1′H,3H-spiro[2-benzofuran-1,4′-piperidin]-1′-yl)-1-oxa-3-azaspiro[4.5]dec-2-en-4-one diastereomer b] has a Ki of 158 nM.
For `CC(=O)O[C@H]1CC2(C[C@H]1OC(C)=O)OC(N1CCC3(CC1)OCc1ccccc13)=NC2=O` (single isomer, unassigned; diastereomer a) [Example 120, 4-Oxo-2-(1′H,3H-spiro[2-benzofuran-1,4′-piperidin]-1′-yl)-1-oxa-3-azaspiro[4.4]non-2-ene-7,8-diyl diacetate diastereomer a], the Ki was 200 nM.
In the case of `CCOCC1(C)OC(N2CCC3(CC2)OCc2ccccc23)=NC1=O` (single isomer, unassigned; (-)) [Example 97, (−)-5-(Ethoxymethyl)-5-methyl-2-(1′H,3H-spiro[2-benzofuran-1,4′-piperidin]-1′-yl)-1,3-oxazol-4(5H)-one], the Ki is reported as 1580 nM.
`C=C(C)CC1(CC(=C)C)OC(N2CCC3(CC2)OCc2ccccc23)=NC1=O` [Example 56, 5,5-bis(2-Methylprop-2-en-1-yl)-2-(1′H,3H-spiro[2-benzofuran-1,4′-piperidin]-1′-yl)-1,3-oxazol-4(5H)-one] gave a Ki of 15.8 nM.
`CC1(CN2CCCC2)OC(N2CCC3(CC2)OCc2ccccc23)=NC1=O` (centres unmarked) [Example 98, 5-Methyl-5-(pyrrolidin-1-ylmethyl)-2-(1′H,3H-spiro[2-benzofuran-1,4′-piperidin]-1′-yl)-1,3-oxazol-4(5H)-one] gave a Ki of 251 nM.
Compound `O=C1N=C(N2CCC3(CC2)OCc2ccccc23)OC12CCCCC2` [Example 123, 2-(1′H,3H-Spiro[2-benzofuran-1,4′-piperidin]-1′-yl)-1-oxa-3-azaspiro[4.5]dec-2-en-4-one] has a Ki of 10 nM.
Compound `CC1(CC2CCCOC2)OC(N2CCC3(CC2)OCc2ccccc23)=NC1=O` (single isomer, unassigned; diastereomer b) [Example 105, (−)-5-Methyl-2-(1′H,3H-spiro[2-benzofuran-1,4′-piperidin]-1′-yl)-5-(tetrahydro-2H-pyran-3-ylmethyl)-1,3-oxazol-4(5H)-one diastereomer b] has a Ki of 501 nM.
With `CC1(CC2CCOC2)OC(N2CCC3(CC2)OCc2ccccc23)=NC1=O` (single isomer, unassigned; diastereomer b) [Example 100, 5-Methyl-2-(1′H,3H-spiro[2-benzofuran-1,4′-piperidin]-1′-yl)-5-(tetrahydrofuran-3-ylmethyl)-1,3-oxazol-4(5H)-one diastereomer b] the Ki was 126 nM.
Compound `O=C1N=C(N2CCC3(CC2)OCc2ccccc23)O[C@]12C[C@H]1CCCC[C@H]1C2` [Example 141, 2′-(1′H,3H-Spiro[2-benzofuran-1,4′-piperidin]-1′-yl)-1,3,3a,4,5,6,7,7a-octahydro-4′H-spiro[indene-2,5′-[1,3]oxazol]-4′-one] has a Ki of 0.501 nM.
`CC1(Cc2ccccc2)OC(N2CCC3(CC2)OCc2ccccc23)=NC1=O` (single isomer, unassigned; (-)) [Example 71, (−)-5-Benzyl-5-methyl-2-(1′H,3H-spiro[2-benzofuran-1,4′-piperidin]-1′-yl)-1,3-oxazol-4(5H)-one] showed a Ki of 79.4 nM.
In the case of `CCCCC1OC(N2CCC3(CC2)OCc2ccccc23)=NC1=O` (single isomer, unassigned; (-)) [Example 3, (−)-5-Butyl-2-(1′H,3H-spiro[2-benzofuran-1,4′-piperidin]-1′-yl)-1,3-oxazol-4(5H)-one], the Ki is reported as 50.1 nM.
For `CC1OC2(CCN(C3=NC(=O)C(Cc4ccccc4)O3)CC2)c2ccccc21` (centres unmarked) [Example 22, 5-Benzyl-2-(3-methyl-1′H,3H-spiro[2-benzofuran-1,4′-piperidin]-1′-yl)-1,3-oxazol-4(5H)-one], the Ki was 1.26 nM.
`O=C1N=C(N2CCC3(CC2)OCc2ccccc23)O[C@]12C[C@H]1CC(F)(F)C[C@H]1C2` [Example 146, 5′,5′-Difluoro-2-(1′H,3H-spiro[2-benzofuran-1,4′-piperidin]-1′-yl)-3′,3a′,4′,5′,6′,6a′-hexahydro-1′H,4H-spiro[1,3-oxazole-5,2′-pentalen]-4-one] was tested, and the Ki was 3.98 nM.
`CCOC(=O)C1[C@H]2CC3(C[C@@H]12)OC(N1CCC2(CC1)OCc1ccccc12)=NC3=O` (single isomer, unassigned; diastereomer b) [Example 149, Ethyl 4′-oxo-2′-(1′H,3H-spiro[2-benzofuran-1,4′-piperidin]-1′-yl)-4′H-spiro[bicyclo[3.1.0]hexane-3,5′-[1,3]oxazole]-6-carboxylate diastereomer b] gave a Ki of 200 nM.
With `O=C1OC2(CCN(C3=NC(=O)C(Cc4ccccc4)O3)CC2)c2ccccc21` (single isomer, unassigned; enantiomer b) [Example 21, 1′-[5-Benzyl-4-oxo-4,5-dihydro-1,3-oxazol-2-yl]-3H-spiro[2-benzofuran-1,4′-piperidin]-3-one enantiomer B] the Ki was 5.01 nM.
